The values that follow come from patent US12486267B2, “Imidazo[1,2-A]pyridine and [1,2,4]triazolo[1,5-A]pyridine derivatives as TLR9 inhibitors for the treatment of fibrosis” (BRISTOL-MYERS SQUIBB COMPANY, priority 2020, dated 2025).

One test has as its target T1, human TLR7 (Homo sapiens, UniProt Q9NYK1).
T1 sequence (Q9NYK1 27-1049): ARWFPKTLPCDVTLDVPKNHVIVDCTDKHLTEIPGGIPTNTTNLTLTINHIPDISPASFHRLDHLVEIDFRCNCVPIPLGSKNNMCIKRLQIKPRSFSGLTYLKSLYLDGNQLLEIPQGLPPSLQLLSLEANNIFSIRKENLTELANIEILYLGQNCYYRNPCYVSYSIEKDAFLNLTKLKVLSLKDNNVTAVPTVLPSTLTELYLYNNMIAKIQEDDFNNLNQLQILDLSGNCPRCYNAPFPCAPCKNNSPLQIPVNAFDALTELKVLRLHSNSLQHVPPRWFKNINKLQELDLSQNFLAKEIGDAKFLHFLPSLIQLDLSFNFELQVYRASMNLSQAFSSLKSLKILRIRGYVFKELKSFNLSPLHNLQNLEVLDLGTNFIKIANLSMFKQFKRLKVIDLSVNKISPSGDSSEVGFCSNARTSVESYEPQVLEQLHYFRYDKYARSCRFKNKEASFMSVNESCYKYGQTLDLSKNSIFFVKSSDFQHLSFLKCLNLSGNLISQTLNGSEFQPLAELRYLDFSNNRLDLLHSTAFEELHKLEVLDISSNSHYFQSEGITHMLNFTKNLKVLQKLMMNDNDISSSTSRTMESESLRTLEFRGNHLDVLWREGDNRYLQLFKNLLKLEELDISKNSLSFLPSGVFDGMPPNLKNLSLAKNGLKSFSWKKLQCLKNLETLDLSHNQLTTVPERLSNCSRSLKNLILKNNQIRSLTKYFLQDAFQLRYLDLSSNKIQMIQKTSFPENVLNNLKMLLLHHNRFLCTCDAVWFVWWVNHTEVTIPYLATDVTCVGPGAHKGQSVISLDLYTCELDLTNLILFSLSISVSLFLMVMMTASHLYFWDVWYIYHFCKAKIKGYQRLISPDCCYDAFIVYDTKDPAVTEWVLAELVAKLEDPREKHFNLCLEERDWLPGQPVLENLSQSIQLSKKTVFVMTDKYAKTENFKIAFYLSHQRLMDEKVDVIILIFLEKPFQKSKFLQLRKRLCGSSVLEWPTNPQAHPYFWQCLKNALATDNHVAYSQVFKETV
As to the kind of experiment: TLR7 inhibition reporter assay (HEK-Blue cells, SEAP reporter). The class given is cell-based. Particulars: HEK-Blue cells overexpressing human TLR7; stimulated with gardiquimod 7.5 μM; 22 hour incubation; SEAP readout. On the procedure:
(§1) TLR7/8/9 Inhibition Reporter Assays
(§2) HEK-Blue™-cells (Invivogen) overexpressing human TLR7, TLR8 or TLR9 receptors were used for screening inhibitors of these receptors using an inducible SEAP (secreted embryonic alkaline phosphatase) reporter gene under the control of the […] minimal promoter fused to five NF-κB and AP-1-binding sites. Briefly, cells are seeded into Greiner 384 well plates (15000 cells per well for TLR7, 20,000 for TLR8 and 25,000 for TLR9) and then treated with test compounds in DMSO to yield a final dose response concentration range of 0.05 nM-50 μM. After a 30 minute compound pre-treatment at room temperature, the cells are then stimulated with a TLR7 ligand (gardiquimod at a final concentration of 7.5 μM), TLR8 ligand (R848 at a final concentration of 15.9 μM) or TLR9 ligand (ODN2006 at a final concentration of 5 nM) to activate NF-κB and AP-1 which induce the production of SEAP. After a 22 hour incubation at 37° C., 5% CO2, SEAP levels are determined with the addition of HEK-Blue™ Detection reagent (Invivogen), a cell culture medium that allows for detection of SEAP, according to manufacturer's specifications. The percent inhibition is determined as the % reduction in the HEK-Blue signal present in wells treated with agonist plus DMSO alone compared to wells treated with a known inhibitor.
(In general: A reporter such as luciferase makes a cellular process visible.)
By IC50 is commonly meant the concentration that gives 50% inhibition. Read a high IC50 as lower potency. In the case of `CC(C)CN1CCC(N2CCC(c3ccn4cc(-c5ccc(S(C)(=O)=O)cc5)nc4c3F)CC2)CC1` [Example 74, 8-fluoro-7-(1′-isobutyl-[1,4′-bipiperidin]-4-yl)-2-(4-(methylsulfonyl)phenyl)imidazo[1,2-a]pyridine], half-maximal inhibition (IC50) required 2400 nM. On the same count and under the same terms, the result for `COCCN1CCN(c2ccc(-c3cc(C)c4nc(-c5ccc(OC)c(OC)c5)cn4c3)cc2)CC1` [Example 98, 2-(3,4-dimethoxyphenyl)-6-(4-(4-(2-methoxyethyl)piperazin-1-yl)phenyl)-8-methylimidazo[1,2-a]pyridine] reads 1000 nM.

For a further test, the target named is T2, human TLR9 (Homo sapiens, UniProt Q9NR96).
T2 sequence (Q9NR96 26-1032): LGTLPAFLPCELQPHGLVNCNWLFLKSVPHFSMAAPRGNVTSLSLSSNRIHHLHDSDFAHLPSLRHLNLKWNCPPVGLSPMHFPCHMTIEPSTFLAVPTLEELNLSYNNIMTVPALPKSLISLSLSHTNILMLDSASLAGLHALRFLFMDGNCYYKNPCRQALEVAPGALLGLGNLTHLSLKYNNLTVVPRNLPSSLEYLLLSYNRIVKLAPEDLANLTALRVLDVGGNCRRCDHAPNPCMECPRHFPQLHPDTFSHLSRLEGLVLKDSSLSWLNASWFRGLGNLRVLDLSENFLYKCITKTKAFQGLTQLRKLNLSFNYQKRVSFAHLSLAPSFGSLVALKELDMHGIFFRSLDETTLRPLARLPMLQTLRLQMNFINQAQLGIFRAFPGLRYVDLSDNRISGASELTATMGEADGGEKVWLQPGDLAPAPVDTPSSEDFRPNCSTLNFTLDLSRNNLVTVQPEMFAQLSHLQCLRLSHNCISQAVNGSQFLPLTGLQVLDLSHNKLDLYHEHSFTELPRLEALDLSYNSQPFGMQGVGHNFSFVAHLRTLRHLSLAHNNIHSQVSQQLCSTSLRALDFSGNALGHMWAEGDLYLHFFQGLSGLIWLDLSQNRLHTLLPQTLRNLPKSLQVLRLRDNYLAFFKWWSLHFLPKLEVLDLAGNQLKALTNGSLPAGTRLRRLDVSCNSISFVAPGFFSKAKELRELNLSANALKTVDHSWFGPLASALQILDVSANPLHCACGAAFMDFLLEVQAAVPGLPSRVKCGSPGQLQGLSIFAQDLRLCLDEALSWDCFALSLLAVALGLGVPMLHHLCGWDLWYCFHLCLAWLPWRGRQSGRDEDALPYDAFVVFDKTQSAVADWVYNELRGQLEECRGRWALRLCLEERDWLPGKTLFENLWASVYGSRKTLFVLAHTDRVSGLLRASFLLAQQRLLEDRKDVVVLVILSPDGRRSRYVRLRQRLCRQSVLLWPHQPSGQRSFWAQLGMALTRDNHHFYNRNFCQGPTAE
Kind of test: TLR9 inhibition reporter assay (HEK-Blue cells, SEAP reporter). The class given is cell-based. Particulars: HEK-Blue cells overexpressing human TLR9; stimulated with ODN2006 5 nM; 22 hour incubation; SEAP readout. As to the method:
as §1, §2
`CC(C)CN1CCC(N2CCC(c3ccn4cc(-c5ccc(S(C)(=O)=O)cc5)nc4c3F)CC2)CC1` [Example 74, 8-fluoro-7-(1′-isobutyl-[1,4′-bipiperidin]-4-yl)-2-(4-(methylsulfonyl)phenyl)imidazo[1,2-a]pyridine] yielded a half-maximal inhibitory concentration (IC50) of 55 nM. The same measure, in the same setting: the figure for `COCCN1CCN(c2ccc(-c3cc(C)c4nc(-c5ccc(OC)c(OC)c5)cn4c3)cc2)CC1` [Example 98, 2-(3,4-dimethoxyphenyl)-6-(4-(4-(2-methoxyethyl)piperazin-1-yl)phenyl)-8-methylimidazo[1,2-a]pyridine] is 456 nM.

Compound `COc1ccc(-c2nc3c(C)cc(-c4ccc(N5CC6CCC(C5)N6C(C)C)cc4)cn3n2)cc1OC` [Example 151, 2-(3,4-dimethoxyphenyl)-6-(4-(8-isopropyl-3,8-diazabicyclo[3.2.1]octan-3-yl)phenyl)-8-methyl-[1,2,4]triazolo[1,5-a]pyridine] registered an IC50 of 1370 nM.

As to `Cc1cc(-c2ccc(N3CC4CCC(C3)N4C(C)C)cc2)cn2nc(-c3ccc(S(C)(=O)=O)cc3)nc12` [Example 153, 6-(4-(8-isopropyl-3,8-diazabicyclo[3.2.1]octan-3-yl)phenyl)-8-methyl-2-(4-(methylsulfonyl)phenyl)-[1,2,4]triazolo[1,5-a]pyridine], the IC50 is 659 nM.

On to `CC1CC(c2ccc(N3CC4CCC(C3)N4C(C)C)cc2)Cn2nc(-c3ccc(S(C)(=O)=O)cc3)nc21` (centres unmarked) [Example 154, 6-(4-(8-isopropyl-3,8-diazabicyclo[3.2.1]octan-3-yl)phenyl)-8-methyl-2-(4-(methylsulfonyl)phenyl)-5,6,7,8-tetrahydro-[1,2,4]triazolo[1,5-a]pyridine], for which the IC50 was 7740 nM. `COc1ccc(-c2nc3c(C)cc(C4CC5CCC(C4)N5C4CCN(C5CC5)CC4)cn3n2)cc1OC` (centres unmarked) [Example 155, 6-(8-(1-cyclopropylpiperidin-4-yl)-8-azabicyclo[3.2.1]octan-3-yl)-2-(3,4-dimethoxyphenyl)-8-methyl-[1,2,4]triazolo[1,5-a]pyridine] showed an IC50 of 214 nM. This IC50 is about 36-fold lower than that of the compound before. As to `COc1ccc(-c2nc3c(C)cc(C4CC5CCC(C4)N5C4CCN(C(C)C)CC4)cn3n2)cc1OC` (centres unmarked) [Example 156, 2-(3,4-dimethoxyphenyl)-6-(8-(1-isopropylpiperidin-4-yl)-8-azabicyclo[3.2.1]octan-3-yl)-8-methyl-[1,2,4]triazolo[1,5-a]pyridine], the IC50 was determined as 234 nM. Still for that read-out and setting: the figure for `COc1ccc(-c2nc3c(C)cc(C4CCN(C5CCN(C6CC6)CC5)CC4)cn3n2)cc1OC` [Example 157, 6-(1′-cyclopropyl-[1,4′-bipiperidin]-4-yl)-2-(3,4-dimethoxyphenyl)-8-methyl-[1,2,4]triazolo[1,5-a]pyridine] is 232 nM; for `COc1ccc(-c2nc3c(C)cc(C4CCN(C5CCN(C(C)C)CC5)CC4)cn3n2)cc1OC` [Example 158, 2-(3,4-dimethoxyphenyl)-6-(1′-isopropyl-[1,4′-bipiperidin]-4-yl)-8-methyl-[1,2,4]triazolo[1,5-a] pyridine] it is 152 nM; for `Cc1cc(C2CC3CCC(C2)N3C2CCN(C3CC3)CC2)cn2nc(-c3ccc(S(C)(=O)=O)cc3)nc12` (centres unmarked) [Example 159, 6-(8-(1-cyclopropylpiperidin-4-yl)-8-azabicyclo[3.2.1]octan-3-yl)-8-methyl-2-(4-(methylsulfonyl)phenyl)-[1,2,4]triazolo[1,5-a]pyridine] it is 594 nM. On the same count and under the same terms, the result for `Cc1cc(C2CCN(C3CCN(C4CC4)CC3)CC2)cn2nc(-c3ccc(S(C)(=O)=O)cc3)nc12` [Example 161, 6-(1′-cyclopropyl-[1,4′-bipiperidin]-4-yl)-8-methyl-2-(4-(methylsulfonyl)phenyl)-[1,2,4]triazolo[1,5-a]pyridine] reads 270 nM; that for `COc1ccc(-c2nc3ccc(C4CCN(C5CCN(C6CC6)CC5)CC4)cn3n2)cc1OC` [Example 164, 6-(1′-cyclopropyl-[1,4′-bipiperidin]-4-yl)-2-(3,4-dimethoxyphenyl)-[1,2,4]triazolo[1,5-a]pyridine], 390 nM; that for `COc1ccc(-c2nc3ccc(C4CCN(C5CCN(C(C)C)CC5)CC4)cn3n2)cc1OC` [Example 165, 2-(3,4-dimethoxyphenyl)-6-(1′-isopropyl-[1,4′-bipiperidin]-4-yl)-[1,2,4]triazolo[1,5-a]pyridine], 113 nM. Same read-out and setting: the figure for `COc1ccc(-c2nc3ccc(-c4ccc(N5CC6CCC(C5)N6C(C)C)cc4)cn3n2)cc1OC` [Example 166] is 628 nM. As to `CC(C)N1CCN(c2ccc(-c3ccc4nc(-c5ccc(S(C)(=O)=O)cc5)nn4c3)cc2)CC1` [Example 167, 6-(4-(4-isopropylpiperazin-1-yl)phenyl)-2-(4-(methylsulfonyl)phenyl)-[1,2,4]triazolo[1,5-a]pyridine], inhibition was half-maximal at 1630 nM (IC50).
